# Experiments:
# [1] = system: KB (epidermoid carcinoma of the nasopharynx); experiment: Sulforhodamine B cytotoxicity assay, KB; format: cell-based, human; conditions: Table 1; 72 h; average ± SD; read-out: IC50 KB
# Procedure: The 12 novel 1-derivatives 9a-l were evaluated for in vitro antiproliferative activity against four human tumor cell lines, KB (nasopharyngeal), A-549 (lung), DU-145 (prostate), and KBvin (MDR KB subline), by using a sulforhodamine B colorimetric assay with triplicate experiments.^30 Compounds 1 and 3 were used as controls.
# (§1) The human tumor cell lines used in this manuscript were A-549 (lung carcinoma), MDA-MB-231 (triple-negative breast cancer), DU-145 (hormone-insensitive prostate cancer), KB (originally isolated from epidermoid carcinoma of the nasopharynx), KBvin (vincristine-resistant KB subline), and HCT116 (colorectal adenocarcinoma). These cell lines were obtained from the Lineberger Comprehensive Cancer Center (UNC-CH) or from ATCC (Manassas, Va.), except KBvin, which was a generous gift of Professor Y.-C. Cheng (Yale University). All cell lines were maintained and assayed in RPMI-1640 medium containing 2 mM L-glutamine and 25 mM HEPES (HyClone), supplemented with 10% heat-inactivated fetal bovine serum (HyClone), 100 μg/mL streptomycin, 100 IU/mL penicillin, and 0.25 μg/mL amphotericin B (Cellgro) in a humidified atmosphere containing 5% CO2 in air. Compound stock solutions were prepared at 10 mM in DMSO and diluted with culture medium with the final DMSO concentration ≦0.01% (v/v), a concentration without effect on cell growth. The 4-6×10^3 cells/well were cultured for 72 h with various concentrations of test compounds in 96-well plate at 37° C. […] Each assay was performed in triplicate with duplicated samples.
# [2] = system: A549 (Lung cancer); experiment: cells; format: cell-based, human; conditions: Table 6; read-out: In vitro cytotoxicity A549 (Lung cancer)
# [3] = system: KBvin (vincristine-resistant KB subline); experiment: Sulforhodamine B cytotoxicity assay, KBvin; format: cell-based, human; conditions: Table 1; 72 h; average ± SD; read-out: IC50 KBvin
# Source text: as §1, with “Compound stock solutions were prepared at 10 mM in DMSO and diluted with culture medium with the final DMSO concentration ≦0.01% (v/v), a concentration without effect on cell growth.” left out
# [4] = system: MDA-MB-468 (Breast cancer); experiment: cells; format: cell-based, human; conditions: Table 6; read-out: In vitro cytotoxicity MDA-MB-468 (Breast cancer)
# [5] = system: Topo II; experiment: Topo II activity assay, nuclear extracts of treated A-549 cells, catenated kDNA; format: cell-based, human
# Source text: First, we determined the effect of 9a on cell cycle distribution using flow cytometry analysis. […] Because it has been shown that 1-Topo I-DNA covalent complexes enhance the transcription-dependent degradation of Topo I via a 26S proteasome pathway,^32 the effects of 9a on the expression levels of Topo I and Topo II were investigated. […] Compound 9a acts directly on Topo I and results in the accumulation of covalent Topo I-DNA complexes followed by proteasomal Topo I degradation, which is the same effect as 1 and contributes to 9a's cytotoxicity.
# Topo I activity test was performed using an assay kit (TopoGEN) according to the manufacturer's instructions. Nuclear extracts from 9a-treated A-549 cells were incubated with supercoiled DNA (for Topo I) or catenated kDNA (for Topo II) for 30 min at 37° C. Reaction mixture was separated by is 1% agarose gel in 1×TAE buffer. The gel was stained with ethidium bromide and photographed using Gel Doc XR (Bio-Rad).
# [6] = format: in vivo, BALB/c mice
# Procedure: Acute toxicity of 9a in mouse was evaluated pathologically. Sixty 8-week-old male BALB/c mice were randomized into six groups (n=10) to receive 0 (vehicle only), 30, 100, 200, or 300 mg/kg of 9a i.p. on day zero. One group was kept without treatment as a normal control. […] Histopathological evaluations included 1) glycogen deposition, inflammatory cell infiltration, and focal necrosis in liver, 2) regeneration of renal tubule, inflammatory cell infiltration, and chronic progressive nephropathy in kidney, and 3) inflammatory cell infiltration and adenoma in lung. […] Thus, the animals apparently tolerated treatment with 300 mg/kg of 9a, portending an acceptable safety profile.
# Sixty 8-week-old male BALB/c mice (National Laboratory Animal Center, Taipei, Taiwan) were used to evaluate single-dose toxicity. Mice were randomly divided into six groups (n=10) and received a single i.p. injection of 9a at 0 (vehicle), 30, 100, 200 or 300 mg/kg on day 0. One group was untreated as normal control. Body weight was measured every three days for fifteen days. On the end of experimental period, all animals were euthanized by CO2 and tissues from liver, lung, kidney and spleen were weighted (data not shown). Tissues were fixed with 10% formalin and embedded in paraffin. Sections 3-5 μm in thickness were prepared for histopathological examination. Hematoxylin and eosin (H&E) stained paraffin sections were evaluated histopathologically according to the guideline described by Shackelford et al.^36 and graded the symptomatic lesions. […] Statistically significant results (P<0.05) were is shown. This study was approved by the Institutional Animal Care and Use Committee (IACUC) of China Medical University (Taichung, Taiwan), and was performed according to the institutional guidelines.
# [7] = system: HCT 116 (Colon cancer); experiment: cells; format: cell-based, human; conditions: Table 6; read-out: In vitro cytotoxicity HCT 116 (Colon cancer)
smiles,measurement,setting,value
CC[C@@]1(OC(=O)CNC(Cc2ccc(OC)cc2)=NS(=O)(=O)c2ccc(C)cc2)C(=O)OCc2c1cc1n(c2=O)Cc2cc3ccccc3nc2-1 [Compound 9a],IC50,[1],140 ± 18 nM
same,IC50,[2],80.3 ± 6.13 nM
same,IC50,[3],26 nM
same,IC50,[4],22.8 ± 2.97 nM
same,Topo II decatenation of kDNA,[5],failed to decatenate kineoplast DNA
same,overt toxicity,[6]; 300 mg/kg i.p.,no overt toxicity
same,"acute toxicity (anaphylactic, allergic responses, body weight loss)","[6]; single i.p. 30, 100, 200 or 300 mg/kg, male BALB/c mice","no anaphylactic responses, allergic reactions, or significant body weight loss"
same,"histopathological evaluation of liver, spleen, kidney and lung","[6]; single i.p. up to 300 mg/kg, male BALB/c mice",no adverse effects
same,IC50,[7],46.1 ± 1.74 nM

# Reference: patent US9718835B2 (China Medical University Hospital, priority 2013, dated 2017)
